Ends that are not written are not given here.
Tests used:
S. aureus ATCC 29213 = test: MIC, broth dilution; type: cell-based, Staphylococcus aureus; conditions: Table 5; STIP3 variants, highest concentration 100 μg/mL
Procedure: (§1) MIC determination. MICs were measured using peptides with 95% purity. For bacterial studies, cation-adjusted Mueller Hinton (MH) broth was used as the growth medium whereas Yeast Peptone Dextrose (YPD; 10 g/L yeast extract, 20 g/L peptone, 20 g/L dextrose) was used for Candida spp. and other yeast. Microorganisms were diluted to an optical density of […] in MH or YPD broth and a 180 μl volume was mixed with 20 μl of peptide arrayed as a 2-fold dilution series in a flat-bottom 96-well microtitre plate. A control was performed using 20 μl of sterile water. Plates were incubated as standing cultures overnight at 37° C.
(§2) Determination of minimum inhibitory concentrations. The MICs were measured for bioactive peptides identified from the initial screen. For bacterial studies, cation-adjusted Mueller Hinton (MH) broth was used as the growth medium whereas YPD was used for C. albicans. Bacterial cultures were diluted to a OD value of 6×10^−4 in MH broth and a 180 μl volume was mixed with 20 μl of peptide arrayed as 2-fold dilution series in a 96-well plate. For the positive control, 20 μl of sterile water was used. Plates were incubated as standing cultures overnight at 37° C. The lowest peptide concentration that resulted no observed microbial growth after an overnight treatment was defined as the MIC.

[1] = test system: S. aureus ATCC 33592 (MRSA SCCmec type III); test: MIC, broth dilution; type: cell-based, Staphylococcus aureus; conditions: Table 5; STIP3 variants, highest concentration 100 μg/mL
Procedure: as §1, §2

[2] = test system: S. aureus ATCC BAA-1683 (MRSA SCCmec type IV); test: MIC, broth dilution; type: cell-based, Staphylococcus aureus; conditions: Table 5; STIP3 variants, highest concentration 100 μg/mL
Procedure: as §1, §2

[3] = test system: S. aureus ATCC BAA-2094 (MRSA SCCmec type V); test: MIC, broth dilution; type: cell-based, Staphylococcus aureus; conditions: Table 5; STIP3 variants, highest concentration 100 μg/mL
Procedure: as §1, §2

[4] = test system: S. aureus ATCC BAA-2313 (MRSA SCCmec type XI); test: MIC, broth dilution; type: cell-based, Staphylococcus aureus; conditions: Table 5; STIP3 variants, highest concentration 100 μg/mL
Procedure: as §1, §2

[5] = test system: S. aureus ATCC BAA-41 (MRSA SCCmec type II); test: MIC, broth dilution; type: cell-based, Staphylococcus aureus; conditions: Table 5; STIP3 variants, highest concentration 100 μg/mL
Procedure: as §1, §2

[6] = test system: S. aureus ATCC BAA-42 (MRSA SCCmec type VI); test: MIC, broth dilution; type: cell-based, Staphylococcus aureus; conditions: Table 5; STIP3 variants, highest concentration 100 μg/mL
Procedure: as §1, §2

[7] = test system: S. aureus ATCC BAA-44 (MRSA SCCmec type I); test: MIC, broth dilution; type: cell-based, Staphylococcus aureus; conditions: Table 5; STIP3 variants, highest concentration 100 μg/mL
Procedure: as §1, §2

[8] = test system: Mannheimia haemolytica ATCC 33393; test: MIC, broth dilution; type: cell-based; conditions: Table 11; highest concentration 25 μg/mL
Procedure: as §1, §2
The ability of STIP3 variants to inhibit the growth of Mannheimia haemolytica ATCC 33393 was evaluated. This included an alanine scan of STIP3-1 (FIG. 8 & Table 10) as well as 30 rationally-designed STIPs that were evaluated in the preceding Examples against other pathogens (Table 11). Substitutions at a greater number of sites were tolerated in the context of antimicrobial activity. Moreover, the inclusion of basic natural and unnatural amino acids (e.g. lysine, ornithine, and arginine) at positions 3, 4 and 11 (i.e. X1, X2, and X4 of SEQ ID NO: 32) to afford a more uniformly cationic peptide increased activity against M. haemolytica.

C. albicans MYA-2876 = test: MIC, YPD broth; type: cell-based, Candida albicans; conditions: Table 8
Procedure: as §1, §2

[9] = test system: Candida duobushaemulonii AR 391; test: MIC, YPD broth, CDC and FDA AR Candida isolate panel; type: cell-based; conditions: Table 9 below the line: only 200 or 100 μg/mL tested; values reported as 100 are ≤100 μg/mL
Procedure: as §1

[10] = test system: Candida duobushaemulonii AR 392; test: as above; type: cell-based; conditions: Table 9 below the line: only 200 or 100 μg/mL tested; values reported as 100 are ≤100 μg/mL
Procedure: as §1

[11] = test system: Candida duobushaemulonii AR 394; test: as above; type: cell-based; conditions: Table 9 below the line: only 200 or 100 μg/mL tested; values reported as 100 are ≤100 μg/mL
Procedure: as §1

[12] = test system: Candida haemulonii AR 393; test: as above; type: cell-based; conditions: Table 9 below the line: only 200 or 100 μg/mL tested; values reported as 100 are ≤100 μg/mL
Procedure: as §1

[13] = test system: Candida haemulonii AR 395; test: as above; type: cell-based; conditions: Table 9 below the line: only 200 or 100 μg/mL tested; values reported as 100 are ≤100 μg/mL
Procedure: as §1

Candida krusei AR 397 = test: as above; type: cell-based; conditions: Table 9 below the line: only 200 or 100 μg/mL tested; values reported as 100 are ≤100 μg/mL
Procedure: as §1

[14] = test system: Candida lusitaniae AR 398; test: as above; type: cell-based; conditions: Table 9 below the line: only 200 or 100 μg/mL tested; values reported as 100 are ≤100 μg/mL
Procedure: as §1

Kodamae ohmeri AR 396 = test: as above; type: cell-based; conditions: Table 9 below the line: only 200 or 100 μg/mL tested; values reported as 100 are ≤100 μg/mL
Procedure: as §1

[15] = test system: Saccharomyces cerevisiae AR 399; test: as above; type: cell-based; conditions: Table 9 below the line: only 200 or 100 μg/mL tested; values reported as 100 are ≤100 μg/mL
Procedure: as §1

[16] = test system: Saccharomyces cerevisiae AR 400; test: as above; type: cell-based; conditions: Table 9 below the line: only 200 or 100 μg/mL tested; values reported as 100 are ≤100 μg/mL
Procedure: as §1

Row | Sequence | MIC S. aureus ATCC 29213 (S. aureus ATCC 29213) | MIC S. aureus ATCC 33592 (III) [1] | MIC S. aureus ATCC BAA 1683 (IV) [2] | MIC S. aureus ATCC BAA 2094 (V) [3] | MIC S. aureus ATCC BAA 2313 (XI) [4] | MIC S. aureus ATCC BAA 41 (II) [5] | MIC S. aureus ATCC BAA 42 (VI) [6] | MIC S. aureus ATCC BAA 44 (I) [7] | MIC (μg/mL) M. haemolytica [8] | MIC C. albicans MYA-2876 (C. albicans MYA-2876) | MIC (μg/mL) Candida duobushaemulonii AR 391 [9] | MIC (μg/mL) Candida duobushaemulonii AR 392 [10] | MIC (μg/mL) Candida duobushaemulonii AR 394 [11] | MIC (μg/mL) Candida haemulonii AR 393 [12] | MIC (μg/mL) Candida haemulonii AR 395 [13] | MIC (μg/mL) Candida krusei AR 397 (Candida krusei AR 397) | MIC (μg/mL) Candida lusitaniae AR 398 [14] | MIC (μg/mL) Kodamae ohmeri AR 396 (Kodamae ohmeri AR 396) | MIC (μg/mL) Saccharomyces cerevisiae AR 399 [15] | MIC (μg/mL) Saccharomyces cerevisiae AR 400 [16]
1 | TVAGLVKWILATVKKFA [STIP3-15, TVAGLVKWILATVKKFA] | 25 µg/mL | 12.5 µg/mL | 25 µg/mL | 25 µg/mL | 50 µg/mL | 50 µg/mL | 50 µg/mL | 25 µg/mL | 25 µg/mL | 25 µg/mL | > (values below the line were determined using two concentrations of peptide 200 or 100 μg/mL) | > (values below the line were determined using two concentrations of peptide 200 or 100 μg/mL) | > (values below the line were determined using two concentrations of peptide 200 or 100 μg/mL) | > (values below the line were determined using two concentrations of peptide 200 or 100 μg/mL) | > (values below the line were determined using two concentrations of peptide 200 or 100 μg/mL) | ≤ 100 µg/mL | ≤ 100 µg/mL | ≤ 100 µg/mL | ≤ 100 µg/mL | ≤ 100 µg/mL
2 | TVDGLVKWILATVKKFA [STIP3-17, TVDGLVKWILATVKKFA] | > (no inhibition was observed at the highest concentration of peptide tested: 100 μg/mL for the STIP3 variants) | > (no inhibition was observed at the highest concentration of peptide tested: 100 μg/mL for the STIP3 variants) | > (no inhibition was observed at the highest concentration of peptide tested: 100 μg/mL for the STIP3 variants) | > (no inhibition was observed at the highest concentration of peptide tested: 100 μg/mL for the STIP3 variants) | > (no inhibition was observed at the highest concentration of peptide tested: 100 μg/mL for the STIP3 variants) | > (no inhibition was observed at the highest concentration of peptide tested: 100 μg/mL for the STIP3 variants) | > (no inhibition was observed at the highest concentration of peptide tested: 100 μg/mL for the STIP3 variants) | > (no inhibition was observed at the highest concentration of peptide tested: 100 μg/mL for the STIP3 variants) | > (> symbol indicates that no inhibition was observed at the highest concentration of peptide tested: 25 μg/mL) | 12.5 µg/mL | > (values below the line were determined using two concentrations of peptide 200 or 100 μg/mL) | > (values below the line were determined using two concentrations of peptide 200 or 100 μg/mL) | > (values below the line were determined using two concentrations of peptide 200 or 100 μg/mL) | > (values below the line were determined using two concentrations of peptide 200 or 100 μg/mL) | > (values below the line were determined using two concentrations of peptide 200 or 100 μg/mL) | ≤ 100 µg/mL | ≤ 100 µg/mL | > (values below the line were determined using two concentrations of peptide 200 or 100 μg/mL) | ≤ 100 µg/mL | ≤ 100 µg/mL
3 | TVGGLVKWILAAVKKFA [STIP3-12, TVGGLVKWILAAVKKFA] | 25 µg/mL | 25 µg/mL | 25 µg/mL | 50 µg/mL | 25 µg/mL | 25 µg/mL | 25 µg/mL | 25 µg/mL | 25 µg/mL | 100 µg/mL | > (values below the line were determined using two concentrations of peptide 200 or 100 μg/mL) | > (values below the line were determined using two concentrations of peptide 200 or 100 μg/mL) | > (values below the line were determined using two concentrations of peptide 200 or 100 μg/mL) | > (values below the line were determined using two concentrations of peptide 200 or 100 μg/mL) | > (values below the line were determined using two concentrations of peptide 200 or 100 μg/mL) | ≤ 100 µg/mL | ≤ 100 µg/mL | > (values below the line were determined using two concentrations of peptide 200 or 100 μg/mL) | ≤ 100 µg/mL | ≤ 100 µg/mL
4 | TVGGLVKWILDTFKKFA [STIP3-11, TVGGLVKWILDTFKKFA] | 50 µg/mL | 50 µg/mL | 50 µg/mL | 100 µg/mL | 100 µg/mL | 50 µg/mL | 50 µg/mL | 100 µg/mL | > (> symbol indicates that no inhibition was observed at the highest concentration of peptide tested: 25 μg/mL) | 25 µg/mL | > (values below the line were determined using two concentrations of peptide 200 or 100 μg/mL) | > (values below the line were determined using two concentrations of peptide 200 or 100 μg/mL) | > (values below the line were determined using two concentrations of peptide 200 or 100 μg/mL) | > (values below the line were determined using two concentrations of peptide 200 or 100 μg/mL) | > (values below the line were determined using two concentrations of peptide 200 or 100 μg/mL) | ≤ 100 µg/mL | ≤ 100 µg/mL | > (values below the line were determined using two concentrations of peptide 200 or 100 μg/mL) | ≤ 100 µg/mL | ≤ 100 µg/mL

— US12370235B2, “Synthetic, non-natural antimicrobial peptides inspired by Staphylococcus auricularis delta toxin” (University of Saskatchewan, priority 2021, dated 2025)
